Experimental data taken from US10894817B2, “Fatty acid modified urocortin-2 analogs for the treatment of diabetes and chronic kidney disease” (priority 2016, dated 2021).
Like-named read-outs stand apart in the source and are kept apart here. Starred links: 1 amine or outer side, 2 acyl side, 3 side chain; linkers in the order of their positions; H or OH if unused. Residues, ends and D or L forms follow the SMILES beside them. Groups on a side chain read outwards from the residue. *: point of attachment. C18 diacid = O=C(O)CCCCCCCCCCCCCCCCC(=O)*; γGlu = O=C(O)[C@H](CCC(=O)[*:2])N[*:1]; AEEA = NCCOCCOCC(=O)O

Molecular target: T1, human CRHR2b (Homo sapiens, UniProt Q13324)
T1 construct: expressed in transfected cells; host or cells: Chinese Hamster Ovary (CHO) cells, transient transfection
T1 sequence (Q13324 1-438 isoform Q13324-2): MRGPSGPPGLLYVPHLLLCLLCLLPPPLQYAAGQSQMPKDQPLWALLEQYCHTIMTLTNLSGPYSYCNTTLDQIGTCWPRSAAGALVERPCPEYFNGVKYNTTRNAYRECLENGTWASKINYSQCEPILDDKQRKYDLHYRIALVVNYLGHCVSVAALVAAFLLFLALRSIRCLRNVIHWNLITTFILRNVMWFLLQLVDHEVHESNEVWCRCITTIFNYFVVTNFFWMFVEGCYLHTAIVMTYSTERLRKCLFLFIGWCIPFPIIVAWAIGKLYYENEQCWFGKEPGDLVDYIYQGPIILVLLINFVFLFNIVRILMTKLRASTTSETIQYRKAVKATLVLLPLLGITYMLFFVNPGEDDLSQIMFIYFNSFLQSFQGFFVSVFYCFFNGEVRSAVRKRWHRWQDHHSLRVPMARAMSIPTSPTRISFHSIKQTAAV
Assay: human CRHR2b cell-based cAMP assay
How it was run: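 ED50 values are means ± SEM over several runs, curve-fitted from cAMP in pmol, calibrated against unlabeled-cAMP standards. Detection was HTRF competition, ratio 665/620 nm, after 30 min agonist exposure at 37 °C.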

[1] = cAMP assay, Table 26, compounds of Example 9, read-out: hCRHR2b Average EC50

EC50 [1] [nM] | SMILES | EC50 [nM]
13.4 | CC[C@H](C)[C@H](N)C(=O)N[C@H](C(=O)N[C@@H](CC(C)C)C(=O)N[C@@H](CO)C(=O)N[C@@H](CC(C)C)C(=O)N[C@@H](CC(=O)O)C(=O)N[C@H](C(=O)N1CCC[C@H]1C(=O)N[C@H](C(=O)NCC(=O)N[C@@H](CC(C)C)C(=O)N[C@@H](CC(C)C)C(=O)N[C@@H](CCC(N)=O)C(=O)N[C@H](C(=O)N[C@@H](CC(C)C)C(=O)N[C@@H](CC(C)C)C(=O)N[C@@H](CCC(=O)O)C(=O)N[C@@H](CCCCNC(=O)COCCOCCNC(=O)COCCOCCNC(=O)CC[C@H](NC(=O)CC[C@H](NC(=O)CCCCCCCCCCCCCCCCC(=O)O)C(=O)O)C(=O)O)C(=O)N[C@@H](CCC(=O)O)C(=O)N[C@@H](CCCCN)C(=O)N[C@@H](CCC(N)=O)C(=O)N[C@@H](CCC(=O)O)C(=O)N[C@@H](CCCCN)C(=O)N[C@@H](CCC(=O)O)C(=O)N[C@@H](CCCCN)C(=O)N[C@@H](CCC(N)=O)C(=O)N[C@@H](CCC(N)=O)C(=O)N[C@@H](C)C(=O)N[C@H](C(=O)N[C@H](C(=O)N[C@@H](CC(N)=O)C(=O)N[C@@H](C)C(=O)N[C@@H](CCC(N)=O)C(=O)N[C@H](C(=O)N[C@@H](CC(C)C)C(=O)N[C@@H](C)C(=O)N[C@@H](Cc1c[nH]cn1)C(=O)N[C@H](C(N)=O)C(C)C)[C@@H](C)CC)[C@@H](C)O)[C@@H](C)O)[C@@H](C)CC)[C@@H](C)CC)C(C)C)C(C)C [Compound 44] (H-IVLSLDVPIGLLQILLEK([AEEA-AEEA-γGlu-γGlu-C18 diacid])EKQEKEKQQATTNAQILAHV-NH2) | 
27.7 | CC[C@H](C)[C@H](N)C(=O)N[C@H](C(=O)N[C@@H](CC(C)C)C(=O)N[C@@H](CO)C(=O)N[C@@H](CC(C)C)C(=O)N[C@@H](CC(=O)O)C(=O)N[C@H](C(=O)N1CCC[C@H]1C(=O)N[C@H](C(=O)NCC(=O)N[C@@H](CC(C)C)C(=O)N[C@@H](CC(C)C)C(=O)N[C@@H](CCC(N)=O)C(=O)N[C@H](C(=O)N[C@@H](CC(C)C)C(=O)N[C@@H](CC(C)C)C(=O)N[C@@H](CCC(=O)O)C(=O)N[C@@H](CCC(N)=O)C(=O)N[C@@H](CCC(=O)O)C(=O)N[C@@H](CCCCN)C(=O)N[C@@H](CCCCNC(=O)COCCOCCNC(=O)COCCOCCNC(=O)CC[C@H](NC(=O)CC[C@H](NC(=O)CCCCCCCCCCCCCCCCC(=O)O)C(=O)O)C(=O)O)C(=O)N[C@@H](CCC(=O)O)C(=O)N[C@@H](CCCCN)C(=O)N[C@@H](CCC(=O)O)C(=O)N[C@@H](CCCCN)C(=O)N[C@@H](CCC(N)=O)C(=O)N[C@@H](CCC(N)=O)C(=O)N[C@@H](C)C(=O)N[C@H](C(=O)N[C@H](C(=O)N[C@@H](CC(N)=O)C(=O)N[C@@H](C)C(=O)N[C@@H](CCC(N)=O)C(=O)N[C@H](C(=O)N[C@@H](CC(C)C)C(=O)N[C@@H](C)C(=O)N[C@@H](Cc1c[nH]cn1)C(=O)N[C@H](C(N)=O)C(C)C)[C@@H](C)CC)[C@@H](C)O)[C@@H](C)O)[C@@H](C)CC)[C@@H](C)CC)C(C)C)C(C)C [Compound 45] (H-IVLSLDVPIGLLQILLEQEKK([AEEA-AEEA-γGlu-γGlu-C18 diacid])EKEKQQATTNAQILAHV-NH2) | 
4.56 | CC[C@H](C)[C@H](N)C(=O)N[C@H](C(=O)N[C@@H](CC(C)C)C(=O)N[C@@H](CO)C(=O)N[C@@H](CC(C)C)C(=O)N[C@@H](CC(=O)O)C(=O)N[C@H](C(=O)N1CCC[C@H]1C(=O)N[C@H](C(=O)NCC(=O)N[C@@H](CC(C)C)C(=O)N[C@@H](CC(C)C)C(=O)N[C@@H](CCC(N)=O)C(=O)N[C@H](C(=O)N[C@@H](CC(C)C)C(=O)N[C@@H](CC(C)C)C(=O)N[C@@H](CCC(=O)O)C(=O)N[C@@H](CCC(N)=O)C(=O)N[C@@H](CCC(=O)O)C(=O)N[C@@H](CCCCN)C(=O)N[C@@H](CCC(N)=O)C(=O)N[C@@H](CCC(=O)O)C(=O)N[C@@H](CCCCN)C(=O)N[C@@H](CCC(=O)O)C(=O)N[C@@H](CCCCN)C(=O)N[C@@H](CCCCNC(=O)COCCOCCNC(=O)COCCOCCNC(=O)CC[C@H](NC(=O)CC[C@H](NC(=O)CCCCCCCCCCCCCCCCC(=O)O)C(=O)O)C(=O)O)C(=O)N[C@@H](CCC(N)=O)C(=O)N[C@@H](C)C(=O)N[C@H](C(=O)N[C@H](C(=O)N[C@@H](CC(N)=O)C(=O)N[C@@H](C)C(=O)N[C@@H](CCC(N)=O)C(=O)N[C@H](C(=O)N[C@@H](CC(C)C)C(=O)N[C@@H](C)C(=O)N[C@@H](Cc1c[nH]cn1)C(=O)N[C@H](C(N)=O)C(C)C)[C@@H](C)CC)[C@@H](C)O)[C@@H](C)O)[C@@H](C)CC)[C@@H](C)CC)C(C)C)C(C)C [Compound 47] (H-IVLSLDVPIGLLQILLEQEKQEKEKK([AEEA-AEEA-γGlu-γGlu-C18 diacid])QATTNAQILAHV-NH2) | 

Continued, compound first:

SMILES | EC50 [1] [nM] | EC50 [nM]
CC[C@H](C)[C@H](N)C(=O)N[C@H](C(=O)N[C@@H](CC(C)C)C(=O)N[C@@H](CO)C(=O)N[C@@H](CC(C)C)C(=O)N[C@@H](CC(=O)O)C(=O)N[C@H](C(=O)N1CCC[C@H]1C(=O)N[C@H](C(=O)NCC(=O)N[C@@H](CC(C)C)C(=O)N[C@@H](CC(C)C)C(=O)N[C@@H](CCC(N)=O)C(=O)N[C@H](C(=O)N[C@@H](CC(C)C)C(=O)N[C@@H](CCCCNC(=O)COCCOCCNC(=O)COCCOCCNC(=O)CC[C@H](NC(=O)CC[C@H](NC(=O)CCCCCCCCCCCCCCCCC(=O)O)C(=O)O)C(=O)O)C(=O)N[C@@H](CCC(=O)O)C(=O)N[C@@H](CCC(N)=O)C(=O)N[C@@H](CCC(=O)O)C(=O)N[C@@H](CCCCN)C(=O)N[C@@H](CCC(N)=O)C(=O)N[C@@H](CCC(=O)O)C(=O)N[C@@H](CCCCN)C(=O)N[C@@H](CCC(=O)O)C(=O)N[C@@H](CCCCN)C(=O)N[C@@H](CCC(N)=O)C(=O)N[C@@H](CCC(N)=O)C(=O)N[C@@H](C)C(=O)N[C@H](C(=O)N[C@H](C(=O)N[C@@H](CC(N)=O)C(=O)N[C@@H](C)C(=O)N[C@@H](CCC(N)=O)C(=O)N[C@H](C(=O)N[C@@H](CC(C)C)C(=O)N[C@@H](C)C(=O)N[C@@H](Cc1c[nH]cn1)C(=O)N[C@H](C(N)=O)C(C)C)[C@@H](C)CC)[C@@H](C)O)[C@@H](C)O)[C@@H](C)CC)[C@@H](C)CC)C(C)C)C(C)C [Compound 42] (H-IVLSLDVPIGLLQILK([AEEA-AEEA-γGlu-γGlu-C18 diacid])EQEKQEKEKQQATTNAQILAHV-NH2) | 500 | 
CC[C@H](C)[C@H](N)C(=O)N[C@H](C(=O)N[C@@H](CC(C)C)C(=O)N[C@@H](CO)C(=O)N[C@@H](CC(C)C)C(=O)N[C@@H](CC(=O)O)C(=O)N[C@H](C(=O)N1CCC[C@H]1C(=O)N[C@H](C(=O)NCC(=O)N[C@@H](CC(C)C)C(=O)N[C@@H](CC(C)C)C(=O)N[C@@H](CCC(N)=O)C(=O)N[C@H](C(=O)N[C@@H](CC(C)C)C(=O)N[C@@H](CC(C)C)C(=O)N[C@@H](CCCCNC(=O)COCCOCCNC(=O)COCCOCCNC(=O)CC[C@H](NC(=O)CC[C@H](NC(=O)CCCCCCCCCCCCCCCCC(=O)O)C(=O)O)C(=O)O)C(=O)N[C@@H](CCC(N)=O)C(=O)N[C@@H](CCC(=O)O)C(=O)N[C@@H](CCCCN)C(=O)N[C@@H](CCC(N)=O)C(=O)N[C@@H](CCC(=O)O)C(=O)N[C@@H](CCCCN)C(=O)N[C@@H](CCC(=O)O)C(=O)N[C@@H](CCCCN)C(=O)N[C@@H](CCC(N)=O)C(=O)N[C@@H](CCC(N)=O)C(=O)N[C@@H](C)C(=O)N[C@H](C(=O)N[C@H](C(=O)N[C@@H](CC(N)=O)C(=O)N[C@@H](C)C(=O)N[C@@H](CCC(N)=O)C(=O)N[C@H](C(=O)N[C@@H](CC(C)C)C(=O)N[C@@H](C)C(=O)N[C@@H](Cc1c[nH]cn1)C(=O)N[C@H](C(N)=O)C(C)C)[C@@H](C)CC)[C@@H](C)O)[C@@H](C)O)[C@@H](C)CC)[C@@H](C)CC)C(C)C)C(C)C [Compound 43] (H-IVLSLDVPIGLLQILLK([AEEA-AEEA-γGlu-γGlu-C18 diacid])QEKQEKEKQQATTNAQILAHV-NH2) |  | 12.6
CC[C@H](C)[C@H](N)C(=O)N[C@H](C(=O)N[C@@H](CC(C)C)C(=O)N[C@@H](CO)C(=O)N[C@@H](CC(C)C)C(=O)N[C@@H](CC(=O)O)C(=O)N[C@H](C(=O)N1CCC[C@H]1C(=O)N[C@H](C(=O)NCC(=O)N[C@@H](CC(C)C)C(=O)N[C@@H](CC(C)C)C(=O)N[C@@H](CCC(N)=O)C(=O)N[C@H](C(=O)N[C@@H](CC(C)C)C(=O)N[C@@H](CC(C)C)C(=O)N[C@@H](CCC(=O)O)C(=O)N[C@@H](CCC(N)=O)C(=O)N[C@@H](CCC(=O)O)C(=O)N[C@@H](CCCCN)C(=O)N[C@@H](CCC(N)=O)C(=O)N[C@@H](CCC(=O)O)C(=O)N[C@@H](CCCCN)C(=O)N[C@@H](CCC(=O)O)C(=O)N[C@@H](CCCCNC(=O)COCCOCCNC(=O)COCCOCCNC(=O)CC[C@H](NC(=O)CC[C@H](NC(=O)CCCCCCCCCCCCCCCCC(=O)O)C(=O)O)C(=O)O)C(=O)N[C@@H](CCC(N)=O)C(=O)N[C@@H](CCC(N)=O)C(=O)N[C@@H](C)C(=O)N[C@H](C(=O)N[C@H](C(=O)N[C@@H](CC(N)=O)C(=O)N[C@@H](C)C(=O)N[C@@H](CCC(N)=O)C(=O)N[C@H](C(=O)N[C@@H](CC(C)C)C(=O)N[C@@H](C)C(=O)N[C@@H](Cc1c[nH]cn1)C(=O)N[C@H](C(N)=O)C(C)C)[C@@H](C)CC)[C@@H](C)O)[C@@H](C)O)[C@@H](C)CC)[C@@H](C)CC)C(C)C)C(C)C [Compound 46] (H-IVLSLDVPIGLLQILLEQEKQEKEK([AEEA-AEEA-γGlu-γGlu-C18 diacid])QQATTNAQILAHV-NH2) | 11.7 | 
